In patent publication US20220340875A1, “METHODS OF CULTURING AND/OR EXPANDING STEM CELLS AND/OR LINEAGE COMMITTED PROGENITOR CELLS USING AMIDO COMPOUNDS” (IDEAYA BIOSCIENCES, INC., priority 2018, published 2022):
pIC50: −log10 of the molar value.

What follows are compounds tested against T1, hAhR (Homo sapiens, UniProt P35869) (assay: AhR DRE-luciferase reporter transcriptional assay, antagonist mode (TCDD-induced)). Settings: HEPG2 DRE-Luc cells, 3 nM TCDD, 24 hour incubation, relative IC50.
T1 construct: Stably integrated DRE-luciferase cell lines were generated by transducing the both cell lines with Cignal XRE luciferase reporter (Qiagen) lentiviral particles; endogenous in cells
T1 sequence (P35869 11-848): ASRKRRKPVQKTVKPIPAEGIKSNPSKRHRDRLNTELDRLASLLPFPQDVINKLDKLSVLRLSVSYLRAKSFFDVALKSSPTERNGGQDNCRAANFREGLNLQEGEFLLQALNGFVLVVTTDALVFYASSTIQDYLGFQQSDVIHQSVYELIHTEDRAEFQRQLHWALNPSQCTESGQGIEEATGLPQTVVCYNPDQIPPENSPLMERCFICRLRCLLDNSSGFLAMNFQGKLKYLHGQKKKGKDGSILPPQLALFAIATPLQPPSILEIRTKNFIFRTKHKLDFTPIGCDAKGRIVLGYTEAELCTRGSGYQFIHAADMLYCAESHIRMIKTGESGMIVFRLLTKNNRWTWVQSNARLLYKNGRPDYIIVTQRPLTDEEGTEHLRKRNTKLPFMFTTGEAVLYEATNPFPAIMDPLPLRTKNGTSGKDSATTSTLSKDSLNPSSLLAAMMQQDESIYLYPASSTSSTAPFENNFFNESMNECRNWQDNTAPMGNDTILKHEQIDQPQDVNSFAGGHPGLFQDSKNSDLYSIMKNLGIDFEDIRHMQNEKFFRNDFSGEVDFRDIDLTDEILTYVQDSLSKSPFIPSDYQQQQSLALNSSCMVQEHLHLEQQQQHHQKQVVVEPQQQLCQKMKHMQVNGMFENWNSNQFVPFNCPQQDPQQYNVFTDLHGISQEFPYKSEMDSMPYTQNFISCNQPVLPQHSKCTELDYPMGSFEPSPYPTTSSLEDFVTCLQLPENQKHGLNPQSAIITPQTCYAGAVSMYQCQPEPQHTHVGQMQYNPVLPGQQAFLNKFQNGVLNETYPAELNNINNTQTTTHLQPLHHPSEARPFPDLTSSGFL
Type: cell-based
Procedure, shortened: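 HepG2 cells carrying a stably integrated DRE-luciferase reporter, in OptiMEM with 0.5% FBS; semi-log compound doses added with 3 nM TCDD, 24 h incubation, firefly luciferase read-out. Percent maximal activity normalised between vehicle ± TCDD; relative IC50 taken as half-reduction between curve plateaus.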

| Compound | pIC50 |
| --- | --- |
| Cc1cc(-c2ccc3cc(F)cc(C)c3n2)ccc1NC(=O)c1ccnn1C [Example 052, N-(4-(6-fluoro-8-methylquinolin-2-yl)-2-methylphenyl)-1-methyl-1H-pyrazole-5-carboxamide] | > 6.70 |
| Cc1cc(-c2ccc3cc(F)ccc3n2)ccc1NC(=O)c1ccccc1 [Example 023, N-(4-(6-fluoroquinolin-2-yl)-2-methylphenyl)benzamide] | 6.00 to 6.30 |
| Cc1cc(-c2ccc3cc(OC(F)(F)F)ccc3n2)ccc1NC(=O)c1ccnn1C [Example 011, 1-methyl-N-(2-methyl-4-(6-(trifluoromethoxy)quinolin-2-yl)phenyl)-1H-pyrazole-5-carboxamide] | 6.30 to 6.70 |
| Cc1cc(-c2ncc3cc(C(F)(F)F)ccc3n2)ccc1N(C)C(=O)c1ncccc1C [Example 118, N,3-dimethyl-N-(2-methyl-4-(6-(trifluoromethyl)quinazolin-2-yl)phenyl)picolinamide] | 6.30 to 6.70 |
| Cc1cc(C(=O)Nc2ccc(-c3ncc4nc(C(F)(F)F)cc(C)c4n3)cc2F)ccn1 [Example 164, N-(2-fluoro-4-(8-methyl-6-(trifluoromethyl)pyrido[3,2-d]pyrimidin-2-yl)phenyl)-2-methylisonicotinamide] | > 6.70 |
| Cn1nccc1C(=O)Nc1ccc(-c2ccc3cc(F)ccc3n2)cc1OC(F)(F)F [Example 047, N-(4-(6-fluoroquinolin-2-yl)-2-(trifluoromethoxy)phenyl)-1-methyl-1H-pyrazole-5-carboxamide] | 5.00 to 6.00 |
| Cc1cc(-c2ccc3cncc(C)c3c2)ccc1NC(=O)c1ccnn1C [Example 061, 1-methyl-N-(2-methyl-4-(4-methylisoquinolin-6-yl)phenyl)-1H-pyrazole-5-carboxamide] | 6.00 to 6.30 |
| Cn1nccc1C(=O)Nc1ccc(-c2cnc3ccccc3n2)cc1 [Example 003, 1-methyl-N-(4-(quinoxalin-2-yl)phenyl)-1H-pyrazole-5-carboxamide] | 6.00 to 6.30 |
| COC(=O)N(C)c1ccc(-c2ncc3cc(C(F)(F)F)ccc3n2)cc1C [Example 128, methyl methyl(2-methyl-4-(6-(trifluoromethyl)quinazolin-2-yl)phenyl)carbamate] | > 6.70 |
| Cc1cc(-c2ccc3ccc(C(F)(F)F)cc3n2)ccc1NC(=O)c1ccnn1C [Example 078, 1-methyl-N-(2-methyl-4-(7-(trifluoromethyl)quinolin-2-yl)phenyl)-1H-pyrazole-5-carboxamide] | 6.30 to 6.70 |
| Cc1cc(-c2ccc3cc(F)cc(C(F)(F)F)c3n2)ccc1NC(=O)c1ccnn1C [Example 058, N-(4-(6-fluoro-8-(trifluoromethyl)quinolin-2-yl)-2-methylphenyl)-1-methyl-1H-pyrazole-5-carboxamide] | 6.30 to 6.70 |
| Cc1cc(-c2ncc3cc(C(F)(F)F)ccc3n2)ccc1NC(=O)c1ccnc(C(N)=O)c1 [Example 151, N4-(2-methyl-4-(6-(trifluoromethyl)quinazolin-2-yl)phenyl)pyridine-2,4-dicarboxamide] | > 6.70 |
| COc1cnccc1C(=O)Nc1ccc(-c2ncc3cc(C(F)(F)F)ccc3n2)cc1C [Example 144, 3-methoxy-N-(2-methyl-4-(6-(trifluoromethyl)quinazolin-2-yl)phenyl)isonicotinamide] | > 6.70 |
| Cc1cc(-c2nc3cc(F)ccc3s2)ccc1NC(=O)c1ccnn1C [Example 099, N-(4-(5-fluorobenzo[d]thiazol-2-yl)-2-methylphenyl)-1-methyl-1H-pyrazole-5-carboxamide] | > 6.70 |
| Cc1cc(-c2ccc3nc(C(F)(F)F)cc(C)c3n2)ccc1N(C)C(=O)c1ccnn1CCO [Example 223, 1-(2-hydroxyethyl)-N-methyl-N-[2-methyl-4-[8-methyl-6-(trifluoromethyl)-1,5-naphthyridin-2-yl]phenyl]-1H-pyrazole-5-carboxamide] | > 6.70 |
| Cc1cc(-c2ccc3cc(F)ccc3n2)ccc1NC(=O)c1cn(C)cn1 [Example 035, N-(4-(6-fluoroquinolin-2-yl)-2-methylphenyl)-1-methyl-1H-imidazole-4-carboxamide] | 5.00 to 6.00 |
| CC(=O)Nc1ccc(-c2ccc3cc(F)ccc3n2)cc1C [Example 040, N-(4-(6-fluoroquinolin-2-yl)-2-methylphenyl)acetamide] | 6.30 to 6.70 |

| Compound | pIC50 |
| --- | --- |
| Cc1cc(-c2ncc3nc(C(F)(F)F)cc(C)c3n2)ccc1N(C)C(=O)c1cc(C(N)=O)nn1CC#N [Example 198, 1-(cyanomethyl)-N5-methyl-N5-(2-methyl-4-(8-methyl-6-(trifluoro-methyl)pyrido[3,2-d]pyrimidin-2-yl)phenyl)-1H-pyrazole-3,5-dicarboxamide] | > 6.70 |
| Cc1cc(-c2ccc3ccccc3n2)ccc1NC(=O)c1ccnn1C [Example 070, 1-methyl-N-(2-methyl-4-(quinolin-2-yl)phenyl)-1H-pyrazole-5-carboxamide] | 6.00 to 6.30 |
| Cc1c(-c2ncc3nc(C(F)(F)F)cc(C)c3n2)ccc(N(C)C(=O)c2ccnn2C)c1F [Example 177, N-(2-fluoro-3-methyl-4-(8-methyl-6-(trifluoromethyl)pyrido[3,2-d]pyrimidin-2-yl)phenyl)-N,1-dimethyl-1H-pyrazole-5-carboxamide] | > 6.70 |
| Cc1cc(-c2ncc3cc(C(F)(F)F)ccc3n2)ccc1N(C)C(=O)c1ccnn1C [Example 140, N,1-Dimethyl-N-(2-methyl-4-(6-(trifluoromethyl)quinazolin-2-yl)phenyl)-1H-pyrazole-5-carboxamide] | > 6.70 |
| Cc1cc(-c2ncc3cc(C(F)(F)F)ccc3n2)ccc1N(C)C(=O)c1cnc[nH]1 [Example 131, N-methyl-N-(2-methyl-4-(6-(trifluoromethyl)quinazolin-2-yl)phenyl)-1H-imidazole-5-carboxamide] | 6.30 to 6.70 |
| Cc1cc(-c2ccc3c(ccn3C)n2)ccc1NC(=O)c1ccnn1C [Example 085, 1-methyl-N-(2-methyl-4-(1-methyl-1H-pyrrolo[3,2-b]pyridin-5-yl)phenyl)-1H-pyrazole-5-carboxamide] | 5.00 to 6.00 |
| Cc1cc(-c2ccc3cc(F)ccc3n2)ccc1NC(=O)c1cncnc1 [Example 030, N-(4-(6-fluoroquinolin-2-yl)-2-methylphenyl)pyrimidine-5-carboxamide] | 5.00 to 6.00 |
| Cc1cc(-c2ncc3nc(C(F)(F)F)cc(C)c3n2)ccc1N(C)C(=O)c1ccnn1CCO [Example 173, 1-(2-hydroxyethyl)-N-methyl-N-(2-methyl-4-(8-methyl-6-(trifluoromethyl)-pyrido[3,2-d]pyrimidin-2-yl)phenyl)-1H-pyrazole-5-carboxamide] | > 6.70 |
| Cc1cc(-c2ccc3cc(F)ccc3n2)ccc1NC(=O)c1cccnc1 [Example 027, N-(4-(6-fluoroquinolin-2-yl)-2-methylphenyl)nicotinamide] | 6.00 to 6.30 |
| Cc1cc(-c2ncc3nc(C(F)(F)F)cc(C)c3n2)ccc1NC(=O)c1ccnc(C(N)=O)c1 [Example 166, N4-(2-methyl-4-(8-methyl-6-(trifluoromethyl)pyrido[3,2-d]pyrimidin-2-yl)phenyl)pyridine-2,4-dicarboxamide] | > 6.70 |
| Cc1cc(-c2ncc3cc(F)ccc3n2)ccc1NC(=O)c1ccnn1C [Example 107, N-(4-(6-fluoroquinazolin-2-yl)-2-methylphenyl)-1-methyl-1H-pyrazole-5-carboxamide] | > 6.70 |
| Cc1cc(-c2ccc3cc(F)ccc3n2)ccc1NC(=O)C1CCOCC1 [Example 025, N-(4-(6-fluoroquinolin-2-yl)-2-methylphenyl)tetrahydro-2H-pyran-4-carboxamide] | 5.00 to 6.00 |
| Cc1cc(-c2ccc3cc(F)cc(C(C)C)c3n2)ccc1NC(=O)c1ccnn1C [Example 055, N-(4-(6-fluoro-8-isopropylquinolin-2-yl)-2-methylphenyl)-1-methyl-1H-pyrazole-5-carboxamide] | 5.00 to 6.00 |
| Cc1cc(-c2ncc3nc(C(F)(F)F)ccc3n2)ccc1NC(=O)c1ccnn1C [Example 135, 1-methyl-N-(2-methyl-4-(6-(trifluoromethyl)pyrido[3,2-d]pyrimidin-2-yl)phenyl)-1H-pyrazole-5-carboxamide] | > 6.70 |
| Cc1cc(C(=O)N(C)c2ccc(-c3ncc4nc(C(F)(F)F)cc(C)c4n3)cc2C)ccn1 [Example 150, N,2-dimethyl-N-(2-methyl-4-(8-methyl-6-(trifluoromethyl)pyrido[3,2-d]pyrimidin-2-yl)phenyl)isonicotinamide] | > 6.70 |
| Cc1cc(-c2ncc3cc(C(F)(F)F)ccc3n2)ccc1N(C)C(=O)c1ccnn1CC(N)=O [Example 156, 1-(2-amino-2-oxoethyl)-N-methyl-N-(2-methyl-4-(6-(trifluoromethyl)quinazolin-2-yl)phenyl)-1H-pyrazole-5-carboxamide] | > 6.70 |
